The numbers were not newly measured in patent publication US11268059B2, “Apparatuses, systems, and methods for culturing cells” (eXo Cell, LLC, priority 2015, dated 2022), which cites them from elsewhere.

Series [1] has as its system obese, diabetic yellow KK mice.
Another series relates to BAT. The following applies: humans.
Series [2] deals with isolated adipocytes and differentiated adipocytes (diffAds).
In a further series the test system is ex vivo human adipocytes. Particulars: Ang II stimulation.

As for `C[C@H](Cc1ccc2c(c1)OC(C(=O)[O-])(C(=O)[O-])O2)NC[C@H](O)c1cccc(Cl)c1.[Na+].[Na+]` [CL-316243], in series [1], the effect on obesity entry is “ameliorated obesity”.
Consider `O=S(=O)(Nc1ccc(CCNC[C@H](O)c2cccnc2)cc1)c1ccc(-c2nc(-c3ccc(C(F)(F)F)cc3)cs2)cc1` [L-796568], for which, in the series with obese human males, the anti-obesity effects entry is “did not generate notable anti-obesity effects” and the energy expenditure entry is given as “improved energy expenditure”.
`Nc1nc(CC(=O)Nc2ccc(CCNC[C@H](O)c3ccccc3)cc2)cs1` [migrabegron]: the BAT activation result in the series with BAT is “activates BAT”.
For the compound “angiotensin II (DRVYIHPF; Angiotensin-2; UniProt P01019 25-32, looked up) [Ang II, angiotensin II, component of the renin-angiotensin system]”, in series [2], the adipogenesis result is reported as “may induce adipogenesis”. Besides, the lipolysis entry in the series with ex vivo human adipocytes was “inhibited lipolysis”.
